Test results from patent publication US10077237B2 (Sanofi, priority 2013, dated 2018).
Values joined by “and” are separate entries in the source; they are usually repeats but may differ in a detail not shown here. Identical values can stand only once. Counter-ions that a name gives are not always drawn. One block for each molecule: values may come before it.

Target: T1, recombinant human AMPK complex, containing α2β1γ2 (Homo sapiens, UniProt P54646+Q9Y478)
T1 construct: hsAMPKα2-552-His, hsAMPKβ1-2-270 and hsAMPKγ-2-569 respectively; hsAMPKβ1-2-270; hsAMPKγ-2-569; His (C); made in house; host or cells: Spodoptera frugiperda Sf21 (baculovirus)
T1 sequence (P54646 2-552): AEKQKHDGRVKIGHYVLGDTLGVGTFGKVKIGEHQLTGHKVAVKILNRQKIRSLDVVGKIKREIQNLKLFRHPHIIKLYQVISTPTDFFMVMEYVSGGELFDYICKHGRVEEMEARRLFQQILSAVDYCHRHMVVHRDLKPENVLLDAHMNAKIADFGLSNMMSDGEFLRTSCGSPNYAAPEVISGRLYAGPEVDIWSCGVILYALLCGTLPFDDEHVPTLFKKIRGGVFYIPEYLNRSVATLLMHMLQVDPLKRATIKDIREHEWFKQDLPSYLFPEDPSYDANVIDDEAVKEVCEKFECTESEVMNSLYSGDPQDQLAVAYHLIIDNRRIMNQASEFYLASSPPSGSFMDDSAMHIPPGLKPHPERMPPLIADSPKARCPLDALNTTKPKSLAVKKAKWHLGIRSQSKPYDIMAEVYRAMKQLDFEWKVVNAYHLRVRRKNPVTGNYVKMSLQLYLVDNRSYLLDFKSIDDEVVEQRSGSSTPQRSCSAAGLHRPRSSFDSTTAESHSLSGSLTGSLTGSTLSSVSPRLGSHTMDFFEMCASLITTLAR
T1 sequence (Q9Y478 2-270): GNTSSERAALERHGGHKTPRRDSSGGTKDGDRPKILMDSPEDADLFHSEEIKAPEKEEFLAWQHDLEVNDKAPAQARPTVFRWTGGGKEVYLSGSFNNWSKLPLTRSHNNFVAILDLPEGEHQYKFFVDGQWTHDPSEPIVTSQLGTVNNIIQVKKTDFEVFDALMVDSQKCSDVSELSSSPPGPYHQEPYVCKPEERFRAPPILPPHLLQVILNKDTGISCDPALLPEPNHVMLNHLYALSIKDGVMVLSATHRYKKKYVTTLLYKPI
T1 sequence (Q9UGJ0 2-569 partner limits assumed): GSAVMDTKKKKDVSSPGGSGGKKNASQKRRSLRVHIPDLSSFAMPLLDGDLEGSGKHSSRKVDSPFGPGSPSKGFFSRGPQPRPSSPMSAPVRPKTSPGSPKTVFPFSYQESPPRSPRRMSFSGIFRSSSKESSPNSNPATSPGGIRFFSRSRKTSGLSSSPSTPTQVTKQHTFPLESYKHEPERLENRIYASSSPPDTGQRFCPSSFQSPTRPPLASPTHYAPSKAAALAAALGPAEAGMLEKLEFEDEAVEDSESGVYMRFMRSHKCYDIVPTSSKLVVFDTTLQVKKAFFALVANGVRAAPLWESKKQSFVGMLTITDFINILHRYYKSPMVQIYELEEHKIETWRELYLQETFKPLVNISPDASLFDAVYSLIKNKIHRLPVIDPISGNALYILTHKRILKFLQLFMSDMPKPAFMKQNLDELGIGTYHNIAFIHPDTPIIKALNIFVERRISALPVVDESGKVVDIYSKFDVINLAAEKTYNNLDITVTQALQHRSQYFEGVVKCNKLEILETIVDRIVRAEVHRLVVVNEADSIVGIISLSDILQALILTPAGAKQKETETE
Assay: AMPK in vitro activation assay (HTRF)
Type: biochemical
Details: for EC50: HTRF, recombinant human α2β1γ2 AMPK, 200 μM ATP, biotinylated ACC-CREBp peptide, repeat determinations on separate lines; for Emax / α2β1γ2 AMPK Emax: potentiation of AMPK activity as percent over the basal signal (without compound)
Description: The recombinant human AMPK complex, containing α2β1γ2 was obtained from baculovirus expression system and generated by cotransfection in Spodoptera frugiperda 21 (Sf21). […] were produced in serum free medium (SF900 II, Invitrogen) for 82 hours after a triple infection at a multiplicity of infection (M.O.I.) of 0.05, 0.06 and 0.045 for hsAMPKα2-552-His, hsAMPKβ1-2-270 and hsAMPKγ-2-569 respectively. Cells were harvested by centrifugation at 1,000×g for 10 minutes at 4° C. and stored at −80° C. The insect cell pellet from 8 liters of culture was resuspended and homogenized in 580 ml of lysis buffer (20 mM Hepes pH 7.5, 150 mM NaCl, 10 mM imidazole, 50 mM NaF, 10% Glycerol and supplemented with EDTA free proteases inhibitor cocktail Roche). The AMPK complex was partially purified using an affinity chromatography under a Ni-NTA Agarose column equilibrated in the lysis buffer and eluted with a gradient (0 to 400 mM) of Imidazol.
A homogeneous time-resolved fluorescence (HTRF) assay was used (Li et al, Anal. Biochem. (2003) 321, 151-156) to identify compounds with stimulating activity for the recombinant human AMPK. Enzyme reaction was performed into a 96-well microtiter plate. First, 20 μL of test compounds in 0.5% DMSO were dispensed followed by 10 μL of protein in 50 mM HEPES buffer at pH 7.0, 100 mM NaCl, 5 mM MgCl2, 0.01% BSA, 0.8 mM DTT. After, 30 min incubation at room temperature, the reaction was initiated by the addition of 10 μL of a solution containing 200 μM of ATP as donor substrate, 2 μM or 0.08 μM of biotinylated ACC-CREBp peptide (PolyPeptide) as acceptor. Plates were then incubated 45 min at 37° C. The reaction was terminated by the addition of 40 μl detection mixture containing Eu^3+ cryptate-conjugated anti-pS^133-CREB antibody and streptavidine-XL665 (CisBio). Plates were further incubated for 2 h30 at room temperature. The fluorescence signal was measured using an Envision multireader (Perkin Elmer). The non-specific signal was obtained without substrates. Potentiation of AMPK activity was expressed as a percent over the basal signal (without compound) from which an EC50 value was determined.
The EC50 of a graded dose response curve represents the concentration of a compound where 50% of its maximal effect is observed.

EC50: 0.1 nM
Emax: 155%
Structure (SMILES): O=C1Nc2cc(Cl)c(-c3ccc(C4(CO)CC4)cc3)cc2C1=C(O)c1cc(C2CC2)no1 [Compound 106, 6-chloro-3-[(3-cyclopropylisoxazol-5-yl)hydroxy-methylene]-5-[4-[1-(hydroxymethyl)cyclopropyl]phenyl]indolin-2-one]

EC50: 0.9 nM
Emax: 210%
Structure (SMILES): O=C1Nc2cc(Cl)c(-c3ccc(C4(CO)CC4)cc3)cc2C1=C(O)c1cc(F)cc(F)c1 [Compound 144, 6-chloro-3-[(3,5-difluorophenyl)hydroxy-methylene]-5-[4-[1-(hydroxymethyl)cyclopropyl]phenyl]indolin-2-one]

EC50: 2 nM
Emax: 124%
Structure (SMILES): CC(C)(C)c1cc(C(O)=C2C(=O)Nc3cc(Cl)c(-c4ccc(C5(CO)CC5)cc4)cc32)on1 [Compound 76, 3-[1-(3-tert-Butyl-isoxazol-5-yl)-1-hydroxy-methylidene]-6-chloro-5-[4-(1-hydroxymethyl-cyclopropyl)phenyl]-1,3-dihydro-indol-2-one]

EC50: 6 nM
Emax: 181%
Structure (SMILES): O=C1Nc2cc(Cl)c(-c3ccc(C4(CO)CC4)cc3)cc2C1=C(O)c1cc2cc(Cl)ccc2o1 [Compound 170, 6-chloro-3-[(5-chlorobenzofuran-2-yl)hydroxy-methylene]-5-[4-[1-(hydroxymethyl)cyclopropyl]phenyl]indolin-2-one]

EC50: 21 nM
α2β1γ2 AMPK Emax: (124 +/− 11) %
Structure (SMILES): Cc1cc(C(O)=C2C(=O)Nc3cc(Cl)c(-c4ccc(N(C)C)cc4)cc32)on1 [Compound 1, 6-Chloro-5-(4-dimethylamino-phenyl)-3-[1-hydroxy-1-(3-methyl-isoxazol-5-yl)-methylidene]-1,3-dihydro-indol-2-one]

EC50: 3070 nM
Emax: 192%
Structure (SMILES): CCOc1ccc(-c2cc3c(cc2Cl)NC(=O)C3=C(O)c2cc(C)no2)cc1 [Compound 66, 6-Chloro-5-(4-ethoxy-phenyl)-3-[1-hydroxy-1-(3-methyl-isoxazol-5-yl)-methylidene]-1,3-dihydro-indol-2-one]

EC50: 0.2 nM
Emax: 230%
Structure (SMILES): COc1ccc(C(O)=C2C(=O)Nc3cc(F)c(-c4ccc(C5(CO)CC5)cc4)cc32)cc1F [Compound 125, 6-fluoro-3-[(3-fluoro-4-methoxy-phenyl)hydroxy-methylene]-5-[4-[1-(hydroxymethyl)cyclopropyl]phenyl]indolin-2-one]

EC50: 240 nM
Emax: 108%
Structure (SMILES): Cc1cc(C(O)=C2C(=O)Nc3cc(Cl)c(-c4ccc(F)cc4)cc32)on1 [Compound 30, 6-Chloro-5-(4-fluoro-phenyl)-3-[1-hydroxy-1-(3-methyl-isoxazol-5-yl)-methylidene]-1,3-dihydro-indol-2-one]

EC50: 13 nM
Emax: 207%
Structure (SMILES): CC(C)Oc1cc(C(O)=C2C(=O)Nc3cc(Cl)c(-c4ccc(C5CC(O)C5)cc4)cc32)on1 (stereo not shown) [Compound 166, 6-chloro-5-[4-(3-hydroxycyclobutyl)phenyl]-3-[hydroxy-(3-isopropoxyisoxazol-5-yl)methylene]indolin-2-one]

EC50: 14 nM
Emax: 397%
Structure (SMILES): COc1cc(C(O)=C2C(=O)Nc3cc(Cl)c(-c4ccc(C5CCN(C)C5)cc4)cc32)on1 (stereo not shown) [Compound 133, 6-chloro-3-[hydroxy-(3-methoxyisoxazol-5-yl)methylene]-5-[4-(1-methylpyrrolidin-3-yl)phenyl]indolin-2-one hydrochloride]

The remaining lines, values behind:

Structure (SMILES): Cc1nnc(C(O)=C2C(=O)Nc3cc(Cl)c(-c4ccc(N5CCOCC5)cc4)cc32)o1 [Compound 16, 6-Chloro-3-[1-hydroxy-1-(5-methyl-[1,3,4]oxadiazol-2-yl)-methylidene]-5-(4-morpholin-4-yl-phenyl)-1,3-dihydro-indol-2-one]
EC50: 9 nM
Emax: 268%

Structure (SMILES): COc1cc(C(O)=C2C(=O)Nc3cc(Cl)c(-c4ccc(OCCCN5CCOCC5)cc4)cc32)on1 [Compound 99, 6-chloro-3-[hydroxy-(3-methoxyisoxazol-5-yl)methylene]-5-[4-(3-morpholinopropoxy)phenyl]indolin-2-one]
EC50: 5 nM
Emax: 187%

Structure (SMILES): Cc1cc(C(O)=C2C(=O)Nc3cc(Cl)c(-c4ccc(F)cc4O)cc32)on1 [Compound 56, 6-Chloro-5-(4-fluoro-2-hydroxy-phenyl)-3-[1-hydroxy-1-(3-methyl-isoxazol-5-yl)-methylidene]-1,3-dihydro-indol-2-one]
EC50: 150 nM
Emax: 189%

Structure (SMILES): Cc1cc(C(O)=C2C(=O)Nc3cc(Cl)c(-c4ccc(OCc5ncccn5)cc4)cc32)on1 [Compound 101, 6-chloro-3-[hydroxy-(3-methylisoxazol-5-yl)methylene]-5-[4-(pyrimidin-2-ylmethoxy)phenyl]indolin-2-one]
EC50: 63 nM
Emax: 159%

Structure (SMILES): COc1cc(C(O)=C2C(=O)Nc3cc(Cl)c(-c4ccc(OCc5cccnc5)cc4)cc32)on1 [Compound 100, 6-chloro-3-[hydroxy-(3-methoxyisoxazol-5-yl)methylene]-5-[4-(3-pyridylmethoxy)phenyl]indolin-2-one]
EC50: 36 nM
Emax: 159%

Structure (SMILES): CC(=O)NCCOc1ccc(-c2cc3c(cc2Cl)NC(=O)C3=C(O)c2cc(C)no2)cc1 [Compound 104, N-[2-[4-[6-chloro-3-[hydroxy-(3-methylisoxazol-5-yl)methylene]-2-oxo-indolin-5-yl]phenoxy]ethyl]acetamide]
EC50: 15 nM
Emax: 107%

Structure (SMILES): Cc1cc(C([O-])=C2C(=O)Nc3cc(Cl)c(-c4ccc(N(C)C)cc4)cc32)on1.[Na+] [Compound 2, 6-Chloro-5-(4-dimethylamino-phenyl)-3-[1-hydroxy-1-(3-methyl-isoxazol-5-yl)-methylidene]-1,3-dihydro-indol-2-one, sodium salt]
EC50: 53 nM
α2β1γ2 AMPK Emax: (183 +/− 51) %

Structure (SMILES): Cc1nc(C)c(C(O)=C2C(=O)Nc3cc(Cl)c(-c4ccc(N5CCOCC5)cc4)cc32)s1 [Compound 15, 6-Chloro-3-[1-(2,4-dimethyl-thiazol-5-yl)-1-hydroxy-methylidene]-5-(4-morpholin-4-yl-phenyl)-1,3-dihydro-indol-2-one]
EC50: 27 nM
Emax: 257%

Structure (SMILES): COc1cccc(-c2ccc(-c3cc4c(cc3Cl)NC(=O)C4=C(O)c3cc(OCCN4CCOCC4)no3)cc2)c1O [Compound 90, 6-chloro-5-[4-(2-hydroxy-3-methoxy-phenyl)phenyl]-3-[hydroxy-[3-(2-morpholinoethoxy)isoxazol-5-yl]methylene]indolin-2-one]
EC50: 0.1 nM and 0.2 nM

Structure (SMILES): Cc1cc(C(O)=C2C(=O)Nc3cc(Cl)c(-c4ccc(C5=CCOCC5)cc4)cc32)sn1 [Compound 48, 6-Chloro-5-[4-(3,6-dihydro-2H-pyran-4-yl)-phenyl]-3-[1-hydroxy-1-(3-methyl-isothiazol-5-yl)-methylidene]-1,3-dihydro-indol-2-one]
EC50: 95 nM
Emax: 87%

Structure (SMILES): Cc1cc(C(O)=C2C(=O)Nc3cc(Cl)c(-c4ccc(OCCCN5CCNCC5)cc4)cc32)on1 [Compound 69, 6-Chloro-3-[1-hydroxy-1-(3-methyl-isoxazol-5-yl)methylidene]-5-[4-(3-piperazin-1-yl-propoxy)phenyl]-1,3-dihydro-indol-2-one, hydrochloride]
EC50: 8 nM
Emax: 134%

Structure (SMILES): CCOc1cc(C(O)=C2C(=O)Nc3cc(Cl)c(-c4ccc(-c5cccc(OC)c5O)cc4)cc32)on1 [Compound 105, 6-chloro-3-[(3-ethoxyisoxazol-5-yl)hydroxy-methylene]-5-[4-(2-hydroxy-3-methoxy-phenyl)phenyl]indolin-2-one]
EC50: 0.3 nM
Emax: 74%
